The values below come from US10501817B2, “Process for the manufacture of co-crystallized sucrose natural sweeteners and the products thereof” (IMPERIAL SUGAR COMPANY, priority 2010, dated 2019).

Structures are written as SMILES.

The conditions of experiment [1]: cited from earlier work; for times sweeter than sucrose: sweetness relative to sucrose/sugar.
A short description of experiment [2]: Taste testing of sweetener compositions in water by trained descriptive panel. It counts as in vivo, human. As to conditions: in water at room temperature; 12-point scale; aftertaste at 30 seconds. The text has this: A panel of trained and experienced descriptive panelists (Food Marketing Support Services, Inc.) tasted, described and documented sensory behavior of selected sweetener compositions in water at ambient (room) temperature. The sweetener samples tested were: sugar (100%; Imperial Sugar); Truvia (100%), a consumer brand Stevia sweetener containing a mixture erythritol and Rebiana; Reb-A 97 (100%; Pure Circle), a sugar (75% reduction)—rebaudioside A blended or granulized mixture; a sugar (50% reduction)—rebaudioside A blended or granulized mixture; a sugar/rebaudioside A co-crystallization product in accordance with the instantly described process and the resultant product with a 50% calorie reduction (Co-Crystal (50% Reduction)); and, a sugar/rebaudioside A co-crystallization product in accordance with the instantly described process and the resultant product with a 75% calorie reduction (Co-Crystal (75% Reduction).
Sample Preparation: On the day of the testing panel, a predetermined weight of sugar or sweetener was weighed out. […]
The beaker is gently swirled five (5) times, and the watch glass cover is removed. […] Sweetness was evaluated relative to standardized concentrations of sucrose in water. Samples were also evaluated for character nuances and quantifying attribute intensities such as residual mouth sensations and aftertastes, using a 12-point scale. […]

Regarding `C=C1C[C@@]23CC[C@H]4[C@@](C)(CCC[C@@]4(C)C(=O)O[C@@H]4O[C@H](CO)[C@@H](O)[C@H](O)[C@H]4O)[C@@H]2CC[C@]1(O[C@@H]1O[C@H](CO)[C@@H](O)[C@H](O)[C@H]1O[C@@H]1O[C@H](CO)[C@@H](O)[C@H](O)[C@H]1O)C3` [stevioside], in experiment [1], the “times sweeter than sucrose” value is “about 200 times”.

For `C=C1C[C@@]23CC[C@H]4[C@@](C)(CCC[C@@]4(C)C(=O)O[C@@H]4O[C@H](CO)[C@@H](O)[C@H](O)[C@H]4O)[C@@H]2CC[C@]1(O[C@@H]1O[C@H](CO)[C@@H](O)[C@H](O[C@@H]2O[C@H](CO)[C@@H](O)[C@H](O)[C@H]2O)[C@H]1O[C@@H]1O[C@H](CO)[C@@H](O)[C@H](O)[C@H]1O)C3` [rebaudioside A], in experiment [2], the “flavor/taste profile compared with pure sugar” value was “most extreme flavor profile across the array”. Moreover, the “astringency, bitterness and aftertaste among diterpenoid glycoside sweeteners of Stevia extracts” value in experiment [1] (in vivo) is “the least astringent, the least bitter, and with the least persistent aftertaste”. In addition, the “times sweeter than sucrose” value in experiment [1] is given as 200-300 times.
